Test results reported in PubChem BioAssay AID192 (DTP/NCI, 2004).
Values joined by “and” are separate entries in the source; they are usually repeats but may differ in a detail not shown here. Identical values can stand only once. Toxic doses and inconclusive results are not listed. Square brackets hold non-standard residues; d marks the D form. Peptide text beside a SMILES is read from it. * marks the point of attachment. ξ: configuration not given here. ξF = NC(Cc1ccccc1)C(=O)O; Bz = O=C(c1ccccc1)*

System: BDF1 mice, B16 melanoma ip, median survival T/C
Experiment: NCI In Vivo Anticancer Drug Screen. Data for tumor model B16 Melanoma (intraperitoneal) in B6D2F1 (BDF1) mice
Details: endpoint: median survival time, higher = longer survival
In short: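 Vehicle-treated animals serve as the reference (C); treated animals (T) are scored for survival or tumor size after tumor transplantation.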

[1] = dose: 12.5 mg/kg/injection, schedule: Q01DX009 (ip), vehicle: Klucel (hydroxypropylcellulose) (HPC)
[2] = dose: 25.0 mg/kg/injection, schedule: Q01DX009 (ip), vehicle: Klucel (hydroxypropylcellulose) (HPC)
[3] = dose: 50.0 mg/kg/injection, schedule: Q01DX009 (ip), vehicle: Klucel (hydroxypropylcellulose) (HPC)
[4] = dose: 100.0 mg/kg/injection, schedule: Q04DX003 (ip), vehicle: Klucel (hydroxypropylcellulose) (HPC)
[5] = dose: 200.0 mg/kg/injection, schedule: Q04DX003 (ip), vehicle: Klucel (hydroxypropylcellulose) (HPC)
[6] = dose: 12.5 mg/kg/injection, schedule: Q01DX009 (ip), vehicle: saline with Tween-80
[7] = dose: 25.0 mg/kg/injection, schedule: Q01DX009 (ip), vehicle: saline with Tween-80
[8] = dose: 6.25 mg/kg/injection, schedule: Q01DX009 (ip), vehicle: saline with Tween-80
[9] = dose: 50.0 mg/kg/injection, schedule: Q01DX009 (ip), vehicle: saline with Tween-80
[10] = dose: 100.0 mg/kg/injection, schedule: Q01DX009 (ip), vehicle: saline with Tween-80
[11] = dose: 200.0 mg/kg/injection, schedule: Q01DX009 (ip), vehicle: saline with Tween-80
[12] = dose: 100.0 mg/kg/injection, schedule: Q01DX009 (ip), vehicle: Klucel (hydroxypropylcellulose) (HPC)
[13] = dose: 400.0 mg/kg/injection, schedule: Q01DX009 (ip), vehicle: saline with Tween-80

CCO
T/C (dose: 250.0 mg/kg/injection, schedule: Q01DX009 (ip), vehicle: saline): 109 % of control
T/C (dose: 500.0 mg/kg/injection, schedule: Q01DX009 (ip), vehicle: saline): 86 % of control
T/C (dose: 1000.0 mg/kg/injection, schedule: Q01DX009 (ip), vehicle: saline): 104 % of control
T/C (dose: 2000.0 mg/kg/injection, schedule: Q01DX009 (ip), vehicle: saline): 93 % of control

O=CN(O)CC(=O)O
T/C (dose: 100.0 mg/kg/injection, schedule: Q04DX003 (ip), vehicle: saline): 97 % of control
T/C (dose: 200.0 mg/kg/injection, schedule: Q04DX003 (ip), vehicle: saline): 100 % of control
T/C (dose: 400.0 mg/kg/injection, schedule: Q04DX003 (ip), vehicle: saline): 100 % of control

CCOC(=O)c1cnc(SC)nc1Nc1c(Br)cc(Br)cc1Br
T/C [1]: 106 % of control
T/C [2]: 109 % of control
T/C [3]: 106 % of control

C[Si](C)(C)c1c(F)c(F)cc(F)c1F
T/C [4]: 98 % of control
T/C [5]: 97 % of control
T/C (dose: 400.0 mg/kg/injection, schedule: Q04DX003 (ip), vehicle: Klucel (hydroxypropylcellulose) (HPC)): 97 % of control

Cc1ccc2c(ccc(/C=C/c3ccc(O)c4ncccc34)[n+]2C)c1
T/C [6]: 113 % of control
T/C [7]: 103 % of control

COc1ccc([I+]c2cccc(Cl)c2)cc1Cl
T/C [8]: 112 % of control
T/C [6]: 112 % of control
T/C [7]: 104 % of control

CNC(C)C1(O)Cc2c(O)c3c(c(O)c2C(OC2CC(N)C(O)C(C)O2)C1)C(=O)c1c(OC)cccc1C3=O (centres undefined)
T/C (dose: 0.5 mg/kg/injection, schedule: Q01DX009 (ip), vehicle: water): 108 % of control
T/C (dose: 1.0 mg/kg/injection, schedule: Q01DX009 (ip), vehicle: water): 112 % of control
T/C (dose: 4.0 mg/kg/injection, schedule: Q01DX009 (ip), vehicle: water): 163 % of control
T/C (dose: 8.0 mg/kg/injection, schedule: Q01DX009 (ip), vehicle: water): 172 % of control

O=C(CCN1CC1)Nc1ccc(NC(=O)CCN2CC2)cc1
T/C (dose: 5.0 mg/kg/injection, schedule: Q04DX003 (ip), vehicle: Klucel (hydroxypropylcellulose) (HPC)): 170 % of control
T/C (dose: 10.0 mg/kg/injection, schedule: Q04DX003 (ip), vehicle: Klucel (hydroxypropylcellulose) (HPC)): 173 % of control and 184 % of control
T/C (dose: 20.0 mg/kg/injection, schedule: Q04DX003 (ip), vehicle: Klucel (hydroxypropylcellulose) (HPC)): 160 % of control and 175 % of control
T/C (dose: 40.0 mg/kg/injection, schedule: Q04DX003 (ip), vehicle: Klucel (hydroxypropylcellulose) (HPC)): 105 % of control

C=C(C)/C([O-])=N/[N+](C)(C)CC(O)CCCCCCCCCCCC (centres undefined)
T/C (dose: 25.0 mg/kg/injection, schedule: Q01DX001 (ip), vehicle: saline): 91 % of control
T/C (dose: 50.0 mg/kg/injection, schedule: Q01DX001 (ip), vehicle: saline): 95 % of control

CC(=O)Nc1ccn(C2OC(COC(C)=O)C(OC(C)=O)C2OC(C)=O)c(=O)n1 (centres undefined)
T/C (dose: 150.0 mg/kg/injection, schedule: Q01DX009 (ip), vehicle: saline with Tween-80): 103 % of control
T/C (dose: 300.0 mg/kg/injection, schedule: Q01DX009 (ip), vehicle: saline with Tween-80): 114 % of control
T/C (dose: 600.0 mg/kg/injection, schedule: Q01DX009 (ip), vehicle: saline with Tween-80): 119 % of control
T/C (dose: 1200.0 mg/kg/injection, schedule: Q01DX009 (ip), vehicle: saline with Tween-80): 123 % of control

Cc1cc(C)c(NC(=O)Nc2ccccc2C)c(C)c1
T/C (dose: 25.0 mg/kg/injection, schedule: Q04DX003 (ip), vehicle: Klucel (hydroxypropylcellulose) (HPC)): 102 % of control
T/C (dose: 50.0 mg/kg/injection, schedule: Q04DX003 (ip), vehicle: Klucel (hydroxypropylcellulose) (HPC)): 97 % of control
T/C [4]: 90 % of control

Cc1ccc(N)c(Br)c1
T/C [7]: 88 % of control
T/C [9]: 88 % of control
T/C [10]: 91 % of control

CCCc1c2cc(OC)c(OC)cc2cc2c3cc(OC)c(OC)cc3cc[n+]12 (tested in a mixture with another compound)
T/C (dose: 6.25 mg/kg/injection, schedule: Q01DX009 (ip), vehicle: Klucel (hydroxypropylcellulose) (HPC)): 100 % of control
T/C [1]: 96 % of control
T/C [2]: 100 % of control

COC(=O)C1C(O)C(C)C(O)C(C)/C=C\C=C(C)C(=O)Nc2c(C)c(OC(C)=O)c3c(c2O)C(=O)C(C)=C2OCOC(=C23)C(C)=CC(C)(O)C(O)C(C)C1O (centres undefined)
T/C [1]: 112 % of control
T/C [2]: 100 % of control
T/C (dose: 25.0 mg/kg/injection, schedule: Q01DX009 (ip), vehicle: carboxymethylcellulose (CMC)): 107 % of control
T/C [3]: 102 % of control
T/C (dose: 50.0 mg/kg/injection, schedule: Q01DX009 (ip), vehicle: carboxymethylcellulose (CMC)): 103 % of control
T/C (dose: 100.0 mg/kg/injection, schedule: Q01DX009 (ip), vehicle: carboxymethylcellulose (CMC)): 102 % of control
T/C (dose: 200.0 mg/kg/injection, schedule: Q01DX009 (ip), vehicle: carboxymethylcellulose (CMC)): 96 % of control

O=C(CNC(=O)c1ccccc1)NCC(=O)NC(Cc1ccccc1)C(=O)O (stereo not drawn) (Bz-Gly-Gly-[ξF]-OH)
T/C [9]: 90 % of control
T/C [10]: 87 % of control
T/C [11]: 90 % of control

CCOC(=O)C(Br)C(=O)OCC
T/C (dose: 0.58 mg/kg/injection, schedule: Q04DX003 (ip), vehicle: saline): 97 % of control
T/C (dose: 1.17 mg/kg/injection, schedule: Q04DX003 (ip), vehicle: saline): 100 % of control
T/C (dose: 2.34 mg/kg/injection, schedule: Q04DX003 (ip), vehicle: saline): 97 % of control
T/C (dose: 4.68 mg/kg/injection, schedule: Q04DX003 (ip), vehicle: saline): 93 % of control

C=C(C)C12CC(COC(=O)c3ccccc3)C34OC5(OC1C3C1OC1(COC(=O)CCCCCCCCCCCCCCC)C(O)C1(O)C(OC(=O)c3ccccc3)C(C)C(C(C)CCCCCCC5O)C14)O2 (centres undefined)
T/C (dose: 0.5 micrograms/kg/injection, schedule: Q01DX009 (ip), vehicle: saline): 106 % of control
T/C (dose: 1.0 micrograms/kg/injection, schedule: Q01DX009 (ip), vehicle: saline): 99 % of control
T/C (dose: 1.9 micrograms/kg/injection, schedule: Q01DX009 (ip), vehicle: saline): 100 % of control
T/C (dose: 3.8 micrograms/kg/injection, schedule: Q01DX009 (ip), vehicle: saline): 109 % of control
T/C (dose: 7.5 micrograms/kg/injection, schedule: Q01DX009 (ip), vehicle: saline): 94 % of control
T/C (dose: 15.0 micrograms/kg/injection, schedule: Q01DX009 (ip), vehicle: saline): 96 % of control
T/C (dose: 30.0 micrograms/kg/injection, schedule: Q01DX009 (ip), vehicle: saline): 96 % of control

Nc1nc(=S)c2ncn(C3OC(COC(=O)c4ccccc4)C(OC(=O)c4ccccc4)C3OC(=O)c3ccccc3)c2[nH]1 (centres undefined)
T/C [7]: 115 % of control

Cc1ccc(S(=O)(=O)N/N=C(\C(=O)O)c2ccccc2)cc1
T/C [1]: 95 % of control
T/C [2]: 87 % of control and 88 % of control
T/C [3]: 91 % of control
T/C [12]: 89 % of control

OC(c1ccccc1)C1(c2ccccc2)OCCO1 (centres undefined)
T/C [10]: 100 % of control
T/C [11]: 95 % of control
T/C [13]: 90 % of control

O=C(N/N=C/c1cccc(S(=O)(=O)O)c1)c1ccncc1
T/C [10]: 99 % of control
T/C [11]: 100 % of control
T/C [13]: 103 % of control

CC(=N\O)/C(C)=N/O.CC(=N\O)/C(C)=N/O.CC(=N\O)/C(C)=N/O.CC(=N\O)/C(C)=N/O.[CH3-].[CH3-].[Co].[Co]
T/C [2]: 107 % of control
T/C [3]: 90 % of control
T/C [12]: 100 % of control

COc1cc(C(=O)CO)cc(OC)c1OC(C)=O
T/C (dose: 100.0 mg/kg/injection, schedule: Q04DX003 (ip), vehicle: saline with Tween-80): 95 % of control
T/C (dose: 200.0 mg/kg/injection, schedule: Q04DX003 (ip), vehicle: saline with Tween-80): 87 % of control

CO[C@H](C)[C@@](O)(C(=O)OCC1=CCN2CCC[C@@H]12)C(C)C
T/C (dose: 10.0 mg/kg/injection, schedule: Q01DX009 (ip), vehicle: saline): 114 % of control
T/C (dose: 20.0 mg/kg/injection, schedule: Q01DX009 (ip), vehicle: saline): 104 % of control
T/C (dose: 40.0 mg/kg/injection, schedule: Q01DX009 (ip), vehicle: saline): 100 % of control
T/C (dose: 80.0 mg/kg/injection, schedule: Q01DX009 (ip), vehicle: saline): 95 % of control

CCCCCC/C=C\C(=O)O
T/C [8]: 94 % of control and 95 % of control
T/C [6]: 93 % of control and 104 % of control
T/C [7]: 93 % of control and 98 % of control
T/C [9]: 88 % of control

COC(=O)/C=C/NC(=O)c1ccccc1C(=O)OC
T/C [4]: 86 % of control
T/C (dose: 200.0 mg/kg/injection, schedule: Q01DX009 (ip), vehicle: Klucel (hydroxypropylcellulose) (HPC)): 97 % of control
T/C [5]: 86 % of control
